# Patent US20260144798A1, “Disruption of Vascular Smooth Muscle Relaxation by Carfilzomib May be the Primary Reason for CFZ-Induced Vascular Dysfunction” (AMGEN INC., priority 2019, published 2026)
# What was measured:
# rat aortic rings [1] = assay: Acetylcholine-induced relaxation of phenylephrine-precontracted rat aortic rings
# Method: For assessment of the effect of CFZ on vascular relaxation, the pre-treated aortic rings were incubated with 1 μM PE for 20 minutes to induce contraction. For experiments involving sildenafil and tadalafil, a 10-minute pre-treatment with 30 nM of these smooth muscle relaxants was done prior to the incubation with CFZ. After reaching a stable contraction, ACh, sodium nitroprusside (SNP), nifedipine, riociguat, or cinaciguat was added to the chamber at an increasing concentration from 100 pM to 10 μM; each stepwise concentration increase was added after the response to the current concentration reached a plateau. The relaxation was continuously measured and plotted as percent relaxation normalized to the response with 1 μM PE.
# Aortas were isolated from 8-10 week old CD® (Sprague Dawley) rats (from Charles River Laboratories) in an ice-cold, oxygenated (95% O2, 5% CO2) Krebs-Henseleit buffer. The aortas were then carefully cleaned to remove perivascular fat and cut into 2-mm rings that were mounted between two stainless steel wires in the myograph chamber containing 8 mL of Krebs-Henseleit buffer in 95% O2 and 5% CO2 at 37° C. Rings were stretch until a final stretch of 10 mN (Newton) was reached and incubated for 30 mins for equilibration.
# rat aortic rings [2] = assay: Nifedipine-induced relaxation of rat aortic rings; details: pretreatment of aortic rings with CFZ (FIG. 2C)
# Method: An isometric myograph (DMT 620M) was used for ex vivo measurement of vascular function. Eight-to 10-week old Sprague Dawley rats (purchased from Charles River Laboratories, Wilmington, MA) were first anesthetized with 3% isoflurane and then euthanized using inhaled desflurane. The aortas were isolated in an ice-cold, oxygenated (95% O2, 5% CO2) Krebs-Henseleit buffer (118.3 mM NaCl, 4.7 mM KCl, 1.2 mM MgSO4, 1.2 mM KH2PO4, 2.5 mM CaCl2, 25 mM NaHCO3, and 11.0 mM glucose; purchased from Sigma-Aldrich, St. Louis, MO). […] The tension of the aortic rings was continuously measured with the Lab Chart 7 data acquisition system (ADInstruments, Colorado Springs, CO). […]
# (§1) To assess the effect of CFZ on vascular contraction, the aortic rings were pre-treated with or without CFZ for 2 hours, followed by treatment with an increasing concentration of phenylephrine (PE) from 10 nM to 1 μM. […] The contraction was continuously measured and plotted as percent contraction normalized to the response of KPSS. […] The relaxation was continuously measured and plotted as percent relaxation normalized to the response with 1 μM PE.
# rat aortic rings [3] = assay: Basal vascular tone of isolated rat aortic rings, isometric myograph
# Method: (§2) An isometric myograph (DMT 620M) was used for ex vivo measurement of vascular function. Eight-to 10-week old Sprague Dawley rats (purchased from Charles River Laboratories, Wilmington, MA) were first anesthetized with 3% isoflurane and then euthanized using inhaled desflurane. The aortas were isolated in an ice-cold, oxygenated (95% O2, 5% CO2) Krebs-Henseleit buffer (118.3 mM NaCl, 4.7 mM KCl, 1.2 mM MgSO4, 1.2 mM KH2PO4, 2.5 mM CaCl2, 25 mM NaHCO3, and 11.0 mM glucose; purchased from Sigma-Aldrich, St. Louis, MO). The thoracic aorta was carefully cleaned to remove perivascular fat and cut into 2-mm rings that were mounted between two stainless steel wires in the myograph chamber containing 8 mL of Krebs-Henseleit buffer in 95% O2 and 5% CO2 at 37° C. First, the rings were equilibrated in the chamber for 20 minutes, followed by a gradual increase of mechanical stretch until a final stretch of 10 mN (Newton) was reached. After an additional incubation with fresh buffer for 30 minutes, the rings were constricted with 8 mL of 80 mM KPSS (43 mM NaCl, 80 mM KCl, 2.5 mM CaCl2, 1.2 mM MgSO4, 1.2 mM KH2PO4, 25.0 mM NaHCO3, and 11.0 mM glucose) for 15 to 20 minutes, followed by 3 washes with the Krebs-Henseleit buffer until the force returned to the baseline stretch. The tension of the aortic rings was continuously measured with the Lab Chart 7 data acquisition system (ADInstruments, Colorado Springs, CO). In Some of the experiments the aortic rings were pre-treated with 100 μM N(gamma)-nitro-L-arginine methyl ester (L-NAME; Sigma-Aldrich) and 10 μM indomethacin for 10 minutes prior to the pre-incubation with CFZ (Amgen Inc.) for 2 hours. After an additional incubation with fresh buffer for 30 minutes, the rings were constricted with 8 mL of 80 mM KPSS (43 mM NaCl, 80 mM KCl, 2.5 mM CaCl2, 1.2 mM MgSO4, 1.2 mM KH2PO4, 25.0 mM NaHCO3, and 11.0 mM glucose) for 15 to 20 minutes, followed by 3 washes with the Krebs-Henseleit buffer until the force returned to the baseline stretch. The tension of the aortic rings was continuously measured with the Lab Chart 7 data acquisition system (ADInstruments, Colorado Springs, CO).
# To assess the effect of CFZ on vascular contraction, the aortic rings were pre-treated with or without CFZ for 2 hours, followed by treatment with an increasing concentration of phenylephrine (PE) from 10 nM to 1 μM. After the maximum contraction was achieved, the aortic rings were washed 3 times until the force returned to baseline. The contraction was continuously measured and plotted as percent contraction normalized to the response of KPSS. […] The relaxation was continuously measured and plotted as percent relaxation normalized to the response with 1 μM PE. […]
# VASP = assay: Western blot of p-VASP (S239) in rat thoracic aortic tissue; details: CFZ treatment vs vehicle control (FIG. 6A)
# Method: Each cell pellet was lysed in 50 to 70 μL RIPA buffer (Cell Signaling Technology, Danvers, MA) with the Halt™ protease and phosphatase inhibitor cocktail (Thermo Fisher Scientific). Lysates were quantitated and loaded onto the Li-COR Western blot system. Antibodies specific to phosphorylated eNOS and eNOS from Thermo Fisher Scientific, anti-Guanylyl Cyclase β1 (ER-19) (Sigma-Aldrich), and β-Actin (Sigma-Aldrich) were diluted 1:1000 for Western blot. Antibodies specific to p-VASP, VASP, and GADPH-HRP were purchased from Cell Signaling Technology. […] The number of measurements is indicated by “n.” #denotes P<0.05 (red vs. blue).
# rat aortic rings [4] = assay: sGC activator (cinaciguat, riociguat)-induced relaxation of rat aortic rings; details: cinaciguat or riociguat (FIG. 4C)
# Method: as §2, with “In Some of the experiments the aortic rings were pre-treated with 100 μM N(gamma)-nitro-L-arginine methyl ester (L-NAME; Sigma-Aldrich) and 10 μM indomethacin for 10 minutes prior to the pre-incubation with CFZ (Amgen Inc.) for 2 hours. After an additional incubation with fresh buffer for 30 minutes, the rings were constricted with 8 mL of 80 mM KPSS (43 mM NaCl, 80 mM KCl, 2.5 mM CaCl2, 1.2 mM MgSO4, 1.2 mM KH2PO4, 25.0 mM NaHCO3, and 11.0 mM glucose) for 15 to 20 minutes, followed by 3 washes with the Krebs-Henseleit buffer until the force returned to the baseline stretch.” left out
# as §1
# GUCY1A3 = GUCY1A3 gene expression by RT-PCR in human aortic smooth muscle cells; format: cell-based; details: 24-hour treatment, 2.7 μM CFZ, SMCs (FIG. 4B)
# Method: To confirm whether results could be replicated in human tissue, human aortic smooth muscle cells (Lonza, Walkersville, MD) were cultured in SmGM-2™ Smooth Muscle Cell Growth Medium-2 BulletKit™ (Lonza). The cells were maintained at 37° C. in a humidified incubator with 5% CO2. Cells were seeded at a concentration of 2.5×10^5 cells/mL of medium. After 1 day of culture, fresh medium with or without 2.7 μM CFZ was added and incubated for 6 or 24 hours.
# Cell pellets were lysed in Buffer RLT (Qiagen, Germantown, MD) supplemented with β-mercaptoethanol (Bio-Rad, Hercules, CA). RNA was isolated and purified using QIAcube (Qiagen). The RNA concentration and quality were determined by NanoDrop 8000 spectrophotometer (Thermo Fisher Scientific, Wilmington, DE). DNA contaminant was removed through DNase I (Promega, Madison, WI) digestion prior to quantitative RT-PCR. Quantitative RT-PCR was performed in the QuantStudio 7 Flex RT-PCR system (Thermo Fisher Scientific) with RNA-to-CT 1-Step Kit (Thermo Fisher Scientific) and TaqMan assays (Applied Biosystems, Foster City, CA). The TaqMan assays were GUCY1A3(Hs01015574_m1) and 18S rRNA. Multiplex reactions were run in triplicates with the genes of interest and 18S rRNA normalization control. The average relative quantities were calculated from three separate experiments.
# [5] = test system: isolated rabbit hearts and aortic strips; details: cited from earlier work
smiles,measurement,setting,value
"CC(C)C[C@H](NC(=O)[C@H](CCc1ccccc1)NC(=O)CN1CCOCC1)C(=O)N[C@@H](Cc1ccccc1)C(=O)N[C@@H](CC(C)C)C(=O)[C@@]1(C)CO1 [CFZ, carfilzomib]","EC50 for ACh-induced relaxation, CFZ alone","rat aortic rings [1]; FIG. 5B experiment, vehicle alone 1.9×10^−8",7.3×10^−8
same,EC50 for ACh-induced relaxation,"rat aortic rings [1]; in the presence of CFZ 2.7 μM, vehicle alone 3.2×10^−8 (FIG. 2A)",1.4×10 ^−7
same,effect on ACh-induced relaxation (percent relaxation),"rat aortic rings [1]; increasing CFZ concentrations, high concentrations of ACh (FIG. 2A)",significantly compromised
same,effect on vascular relaxation in the presence of nifedipine,rat aortic rings [2],did not appear to significantly affect vascular relaxation
same,percent contraction under eNOS inhibition (limited NO availability),"rat aortic rings [3]; 100 μM L-NAME and 10 μM indomethacin 10 minutes prior to 2-hour CFZ treatment, vs vehicle (FIG. 1B)",significant but minor increase of percent contraction
same,vascular tone (contraction normalized to 80 mM KPSS),"rat aortic rings [3]; 100 μM LNAME+10 μM indomethacin, 2.7 μM CFZ for 3 hour, vs vehicle (FIG. 10)",increase in vascular tone compared to vehicle
same,percent contraction (basal vascular tone),"rat aortic rings [3]; rings pretreated with CFZ without L-NAME, compared with vehicle control (FIG. 1A)",did not affect vascular tone
same,level of p-VASP,VASP,reduced level of p-VASP compared with the vehicle control
same,effect on VSM relaxation in the presence of sGC activators,rat aortic rings [4],did not interfere with VSM relaxation
same,upregulation of GUCY1A3 gene expression,GUCY1A3,more than 25 fold
same,"coronary perfusion pressure, resting vascular tone, and spasmogenic effects",[5],increased
same,vasodilating effect induced by acetylcholine (ACh),[5],sharply reduced
